Type in all cases: in vivo, BALB/c mice
Holding throughout (settings): FIG. 10; comparison with conventional asthma drugs

The subject of experiment [1] is IFN-γ. Put plainly: ELISA determination of IFN-γ in fluid of pulmonary alveoli of Der p 5 sensitized mice. The text has this: (§1) The effects of the STA-36 and STA-4 herbal composition as well as individual herbs on suppression of allergen-induced immunoglobulin G (IgG), immunoglobulin E (IgE), interleukin-4 (IL-4), and interferon γ (IFN-γ) were investigated using BALB/c mice sensitized with D.P. (Dermatophagoides pteronyssimus) allergen “Der p 5”. Dermatophagoides pteronyssimus is the house dust mite which acts as an antigen and produces an allergic asthmatic reaction in atopic person.
(§2) Female BALB/c mice aged between 4 and 6 weeks and weighed about 20 g were obtained from the National Animal-breeding Center, Republic of China and used in the studies. Mice were age- and sex- matched for each experiment.
(§3) BALB/c mice were initially intraperitoneally sensitized with 10 μg of Dermatophagoides pteronyssimus group 5 (“Der p 5”) allergen and 4 mg of aluminium hydroxide (Wyeth Pharmaceuticals, Punchbowl, Australia). Seven (7) days after the first sensitization, mice, except the placebo control group, were fed with STA-36 and STA-4 herbal compositions until the end of the twenty-first day.
(§4) At the end of the twenty first day, the mice were given a second booster injection of Der p 5. Forty eight (48) hours after the second booster injection, mice were placed in a round plastic container where the mice were further challenged by 0.1% Der p 5 spray.
(§5) Several hours after the challenge, the mouse was anaesthetized using 100 mg/ml phenobarbital. Blood was collected from the tail vein or heart. […]
(§6) One hundred (100) μl of the supernatant from the fluid of pulmonary alveoli were then added to the microwells, together with cytokine standard solution, for overnight reaction at 4° C. […] Plates were read in a microplate autoreader (ELISA reader, Dynex MRX) at 405 nm.
(§7) All of the data contained in the experiments were calculated as “mean±SEM.” Trachea resistance change induced by acetylcholine after converted to PC 100 was measured as μg/kg. […]

The subject of experiment [2] is IgG2a. As to the kind of experiment: ELISA determination of Der p 5-specific IgG (IgG2a) in serum of Der p 5 sensitized mice.
From the text: as §1, §2, §3, §4
(§8) Several hours after the challenge, the mouse was anaesthetized using 100 mg/ml phenobarbital. […]
(§9) The amount of Der p 5-specific IgG and IgE were determined by Enzyme Linked Immunosorbent Assay (ELISA). […]
(§10) Avidin-alkaline phosphatase (1:1000) (Strptavidin-AP, PharMinge 13043E) was then added and incubated for 1 hour at 25° C., followed by six (6) washes. […] Plates were read in a microplate autoreader (ELISA reader, Dynex MRX) at 405 nm. Readings were referenced to commercial isotypes standards which were mouse anti-TNP mAb, IgG1 (107.3), IgG2a (G155-178), and IgE (IgE-3).
as §7

The test system of experiment [3] is IgE. Put plainly: ELISA determination of Der p 5-specific IgE in serum of Der p 5 sensitized mice.
From the text: as §1, §2, §3, §4, §8, §9, §10, §7

In experiment [4] the test system is IL-4. As to the kind of experiment: ELISA determination of IL-4 in fluid of pulmonary alveoli of Der p 5 sensitized mice.
From the text: as §1, §2, §3, §4, §5, §6, §7

In the case of `Cn1c(=O)c2[nH]cnc2n(C)c1=O.Cn1c(=O)c2[nH]cnc2n(C)c1=O.NCCN` [aminophline], in experiment [1], the “effect on IFN-γ vs control” value is “only STA-4 demonstrated significant decreased in IgE and significant increase in IgG, IL-4, and IFN-γ”. In experiment [2], the “effect on IgG (IgG2a) vs control” value is “only STA-4 demonstrated significant decreased in IgE and significant increase in IgG”. Moreover, the “effect on IgE vs control” value in experiment [3] is given as “only STA-4 demonstrated significant decreased in IgE”. Also, the “effect on IL-4 vs control” value in experiment [4] was “only STA-4 demonstrated significant decreased in IgE and significant increase in IgG, IL-4”.
For the compound `CN1CCC(=C2c3ccccc3CC(=O)c3sccc32)CC1` [ketotifen], the “effect on IFN-γ vs control” value in experiment [1] was “only STA-4 demonstrated significant decreased in IgE and significant increase in IgG, IL-4, and IFN-γ”. In addition, the “effect on IgG (IgG2a) vs control” value in experiment [2] is “only STA-4 demonstrated significant decreased in IgE and significant increase in IgG”. Also, the “effect on IgE vs control” value in experiment [3] is on record as “only STA-4 demonstrated significant decreased in IgE”. The “effect on IL-4 vs control” value in experiment [4] is “only STA-4 demonstrated significant decreased in IgE and significant increase in IgG, IL-4”.
Take `C[C@]12C=CC(=O)C=C1CC[C@@H]1[C@@H]2[C@@H](O)C[C@@]2(C)[C@H]1CC[C@]2(O)C(=O)CO` [prednisolone]: the “effect on IFN-γ vs control” value in experiment [1] is “only STA-4 demonstrated significant decreased in IgE and significant increase in IgG, IL-4, and IFN-γ”. In addition, the “effect on IgG (IgG2a) vs control” value in experiment [2] is “only STA-4 demonstrated significant decreased in IgE and significant increase in IgG”. In addition, the “effect on IgE vs control” value in experiment [3] is “only STA-4 demonstrated significant decreased in IgE”. For the same compound, in experiment [4], the “effect on IL-4 vs control” value was “only STA-4 demonstrated significant decreased in IgE and significant increase in IgG, IL-4”.

For the origin of these results see patent US6503542B2, “Herbal compositions for treating immunological disorders” (GloboAsia, L.L.C., priority 2000, dated 2003).
